The record followed here is patent US11072626B2, “Small molecule inhibitors of Galectin-3” (BRISTOL-MYERS SQUIBB COMPANY, priority 2017, dated 2021).

For one test, the target named is His-tagged recombinant human Gal-3 (hGal-3) (Homo sapiens (Human), UniProt P17931). Nature of the test: Gal-3 HTRF assay (hGal-3 / B-ASF). It counts as binding. Conditions: 15 nM hGal-3, 15 nM B-ASF, table after Example 4, read-out: hGal3 IC50. On the procedure: ASSAY BUFFER Composition: 25 mM HEPES, 100 mM NaCl, 0.005% Tween 20, 0.05% BSA prepared in sterile water (all reagents from Sigma)
His-tagged recombinant human Gal-3 (hGal-3), sequence (P17931 whole entry): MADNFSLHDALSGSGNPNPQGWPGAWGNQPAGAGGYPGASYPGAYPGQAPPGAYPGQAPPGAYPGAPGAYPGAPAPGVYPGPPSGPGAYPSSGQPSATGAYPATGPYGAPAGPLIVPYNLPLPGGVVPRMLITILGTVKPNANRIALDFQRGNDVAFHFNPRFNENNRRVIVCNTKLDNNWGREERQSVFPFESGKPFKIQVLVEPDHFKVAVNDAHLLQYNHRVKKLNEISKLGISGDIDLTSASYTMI
Positive Control: 100% DMSO (1 μl)+His-tagged hGal-3 (20 μL)+B-ASF (20 μl)+Anti-His Terbium Antibody (5 μl)+Strep d2 Antibody (5 μl).
Negative Control: 100% DMSO (1 μl)+His-tagged hGal-3 (20μL)+Anti His Terbium Antibody (5 μl)+Strep d2 Aantibody (5 μl).
PROTOCOL: The Gal-3 assays were performed in 384 white Opti plates in three replicates at room temperature with gentle shaking at 250-300 rpm From the original stocks, […] working stock concentrations of His-tagged recombinant human Gal-3 (hGal-3) and that of B-ASF were prepared. From the working stock, 20 μl of hGal-3 (15 nM) and 20 μl B-ASF (15 nM) were added to the plates. In Negative Control, only hGal-3 was added. A concentration range of 50× working stocks were prepared for the compounds in 100% DMSO. Aliquots of 1 uL of the compounds were added to the wells and pre-incubated with 20 μl hGal-3 per well for 30 minutes Then 20 μl B-ASF were added and incubated for another 1 hour. To detect the signal, 5 μ(final conc. of 1.0 nM) terbium labelled Anti-His antibody was added and incubated for 30 min followed by adding 5 μ(final conc. of 20 nM) Streptavidin d2 and incubation for another 1 hour. The assay signal was detected using HTRF screen protocol (Excitation wavelength=340 nm, emission wavelength=615 nm/665 nm) on Envision 2104 Multilabel Reader. Data analysed using Toolset and Curve Master. Results are reported in the experimental section (IC50 in μM).
On the technique in general: In TR-FRET formats the signal depends on donor and acceptor labels being close together.
In the case of `O=C(O)CO[C@@H]1[C@@H](n2cc(-c3cc(F)c(F)c(F)c3)nn2)[C@@H](O)[C@@H](CO)O[C@@H]1Sc1ccc(Cl)c(Cl)c1` [compound 2, 2-(((2R,3R,4S,5R,6R)-2-((3,4-dichlorophenyl)thio)-5-hydroxy-6-(hydroxymethyl)-4-(4-(3,4,5-trifluorophenyl)-1H-1,2,3-triazol-1-yl)tetrahydro-2H-pyran-3-yl)oxy)acetic acid], the IC50 – broadly, the concentration at which inhibition is half-maximal – is 0.046 µM.

`OC[C@H]1O[C@H](Sc2ccc(Cl)c(Cl)c2)[C@H](OCCN2CCOCC2)[C@@H](n2cc(-c3cc(F)c(F)c(F)c3)nn2)[C@H]1O` [compound 5, (2R,3R,4S,5R,6R)-6-((3,4-dichlorophenyl)thio)-2-(hydroxymethyl)-5-(2-morpholinoethoxy)-4-(4-(3,4,5-trifluorophenyl)-1H-1,2,3-triazol-1-yl)tetrahydro-2H-pyran-3-ol]: the concentration for half-maximal inhibition (IC50) was determined as 0.195 µM.

Staying with this test, now noted: 15 nM hGal-3, 15 nM B-ASF, table after Example 46, read-out: hGal3 IC50.
Regarding `COc1ccc(-c2cn([C@H]3[C@@H](O)[C@@H](CO)O[C@H](Sc4ccc(Cl)c(Cl)c4)[C@@H]3OCC(=O)O)nn2)cc1` [Example 47], the concentration for half-maximal inhibition (IC50) was 1.53 µM.

On to `COc1cccc(-c2cn([C@H]3[C@@H](O)[C@@H](CO)O[C@H](Sc4ccc(Cl)c(Cl)c4)[C@@H]3OCC(=O)O)nn2)c1` [Example 48], for which the half-maximal inhibitory concentration (IC50) is 0.74 µM.

Consider `Cc1cccc(-c2cn([C@H]3[C@@H](O)[C@@H](CO)O[C@H](Sc4ccc(Cl)c(Cl)c4)[C@@H]3OCC(=O)O)nn2)c1` [Example 49], for which the half-maximal inhibitory concentration (IC50) is 1.34 µM.

As for `O=C(O)CO[C@@H]1[C@@H](n2cc(-c3ccc(Cl)cc3)nn2)[C@@H](O)[C@@H](CO)O[C@@H]1Sc1ccc(Cl)c(Cl)c1` [Example 50], the IC50 worked out at 0.62 µM.

On to `O=C(O)CO[C@@H]1[C@@H](n2cc(-c3ccccc3F)nn2)[C@@H](O)[C@@H](CO)O[C@@H]1Sc1ccc(Cl)c(Cl)c1` [Example 51], for which the IC50 was determined as 1.61 µM.

As for `O=C(O)CO[C@@H]1[C@@H](n2cc(-c3cc(F)cc(F)c3)nn2)[C@@H](O)[C@@H](CO)O[C@@H]1Sc1ccc(Cl)c(Cl)c1` [Example 52], the IC50 came out at 0.25 µM.

With `Cc1ccccc1-c1cn([C@H]2[C@@H](O)[C@@H](CO)O[C@H](Sc3ccc(Cl)c(Cl)c3)[C@@H]2OCC(=O)O)nn1` [Example 53], the IC50 came to 1.75 µM.

As to `Cc1cc(-c2cn([C@H]3[C@@H](O)[C@@H](CO)O[C@H](Sc4ccc(Cl)c(Cl)c4)[C@@H]3OCC(=O)O)nn2)ccc1F` [Example 54], the IC50 stood at 0.23 µM.

As for `O=C(O)CO[C@@H]1[C@@H](n2cc(-c3ccc(F)c(F)c3)nn2)[C@@H](O)[C@@H](CO)O[C@@H]1Sc1ccc(Cl)c(Cl)c1` [Example 55], the concentration for half-maximal inhibition (IC50) was 0.07 µM.

`COC(=O)c1ccc(-c2cn([C@H]3[C@@H](O)[C@@H](CO)O[C@H](Sc4ccc(Cl)c(Cl)c4)[C@@H]3OCC(=O)O)nn2)cc1` [Example 56]: the half-maximal inhibitory concentration (IC50) was found to be 7.43 µM.

Turning to `O=C(O)CO[C@@H]1[C@@H](n2cc(-c3cccc(F)n3)nn2)[C@@H](O)[C@@H](CO)O[C@@H]1Sc1ccc(Cl)c(Cl)c1` [Example 57], the half-maximal inhibitory concentration (IC50) turned out to be 0.31 µM.

Consider `O=C(O)CO[C@@H]1[C@@H](n2cc(-c3ccc(F)cn3)nn2)[C@@H](O)[C@@H](CO)O[C@@H]1Sc1ccc(Cl)c(Cl)c1` [Example 58], for which the IC50 came to 0.84 µM.

`O=C(O)CO[C@@H]1[C@@H](n2cc(-c3cc(F)ccn3)nn2)[C@@H](O)[C@@H](CO)O[C@@H]1Sc1ccc(Cl)c(Cl)c1` [Example 59]: the 50% inhibitory concentration (IC50) worked out at 5.55 µM.

The same test, now with this note: 15 nM hGal-3, 15 nM B-ASF, three replicates, room temperature, read-out: hGal3 IC50.
Regarding `O=C(O)/C=C/O[C@@H]1[C@@H](n2cc(C3CC3)nn2)[C@@H](O)[C@@H](CO)O[C@@H]1Sc1ccc(Cl)c(Cl)c1` [Example 41, (E)-3-(((2R,3R,4S,5R,6R)-4-(4-cyclopropyl-1H-1,2,3-triazol-1-yl)-2-((3,4-dichlorophenyl)thio)-5-hydroxy-6-(hydroxymethyl)tetrahydro-2H-pyran-3-yl)oxy)acrylic acid], the IC50 came out at 2.74 µM.

Take `CO[C@@H]1[C@@H](n2cc(C(=O)O)nn2)[C@@H](O)[C@@H](CO)O[C@@H]1Sc1ccc(Cl)c(Cl)c1` [Example 42, 1-((2R,3R,4S,5R,6R)-2-((3,4-dichlorophenyl)thio)-5-hydroxy-6-(hydroxymethyl)-3-methoxytetrahydro-2H-pyran-4-yl)-1H-1,2,3-triazole-4-carboxylic acid]: the half-maximal inhibitory concentration (IC50) is 5 µM.

`CO[C@@H]1[C@@H](n2cc(C(=O)NC3CC3)nn2)[C@@H](O)[C@@H](CO)O[C@@H]1Sc1ccc(Cl)c(Cl)c1` [Example 43, N-cyclopropyl-1-((2R,3R,4S,5R,6R)-2-((3,4-dichlorophenyl)thio)-5-hydroxy-6-(hydroxymethyl)-3-methoxytetrahydro-2H-pyran-4-yl)-1H-1,2,3-triazole-4-carboxamide]: the concentration for half-maximal inhibition (IC50) turned out to be 2.9 µM.

As to `CO[C@@H]1[C@@H](n2cc(C(=O)N(C)C3CC3)nn2)[C@@H](O)[C@@H](CO)O[C@@H]1Sc1ccc(Cl)c(Cl)c1` [Example 44, N-cyclopropyl-1-((2R,3R,4S,5R,6R)-2-((3,4-dichlorophenyl)thio)-5-hydroxy-6-(hydroxymethyl)-3-methoxytetrahydro-2H-pyran-4-yl)-N-methyl-1H-1,2,3-triazole-4-carboxamide], the IC50 was found to be 5 µM.

In the case of `CO[C@@H]1[C@@H](n2nncc2C(=O)O)[C@@H](O)[C@@H](CO)O[C@@H]1Sc1ccc(Cl)c(Cl)c1` [Example 45, 1-((2R,3R,4S,5R,6R)-2-((3,4-dichlorophenyl)thio)-5-hydroxy-6-(hydroxymethyl)-3-methoxytetrahydro-2H-pyran-4-yl)-1H-1,2,3-triazole-5-carboxylic acid], the IC50 was 1.52 µM.

As to `O=C(O)CO[C@@H]1[C@@H](n2cc(-c3ccccc3)nn2)[C@@H](O)[C@@H](CO)O[C@@H]1Sc1ccc(Cl)c(Cl)c1` [Example 46, 2-(((2R,3R,4S,5R,6R)-2-((3,4-dichlorophenyl)thio)-5-hydroxy-6-(hydroxymethyl)-4-(4-phenyl-1H-1,2,3-triazol-1-yl)tetrahydro-2H-pyran-3-yl)oxy)acetic acid], the IC50 was 1.36 µM.

On to `OC[C@H]1O[C@H](Sc2ccc(Cl)c(Cl)c2)C[C@@H](n2cc(-c3cc(F)c(F)c(F)c3)nn2)[C@H]1O` [Example 60, (2R,3R,4R,6R)-6-((3,4-dichlorophenyl)thio)-2-(hydroxymethyl)-4-(4-(3,4,5-trifluorophenyl)-1H-1,2,3-triazol-1-yl)tetrahydro-2H-pyran-3-ol], for which the IC50 amounted to 2.2 µM.

Turning to `O=S(=O)(c1ccc(Cl)c(Cl)c1)[C@@H]1C[C@@H](n2cc(-c3cc(F)c(F)c(F)c3)nn2)[C@@H](O)[C@@H](CO)O1` [Example 61, (2R,3R,4R,6R)-6-((3,4-dichlorophenyl)sulfonyl)-2-(hydroxymethyl)-4-(4-(3,4,5-trifluorophenyl)-1H-1,2,3-triazol-1-yl)tetrahydro-2H-pyran-3-ol], the IC50 worked out at 0.16 µM.

`O=C(O)CO[C@@H]1[C@@H](n2cnc(-c3cccc(F)c3)c2)[C@@H](O)[C@@H](CO)O[C@@H]1Sc1ccc(Cl)c(Cl)c1` [Example 63, 2-(((2R,3R,4S,5R,6R)-2-((3,4-dichlorophenyl)thio)-4-(4-(3-fluorophenyl)-1H-imidazol-1-yl)-5-hydroxy-6-(hydroxymethyl)tetrahydro-2H-pyran-3-yl)oxy)acetic acid]: the IC50 amounted to 1.56 µM.
